The Km is the concentration of substrate that gives half-maximal velocity. A word on the inhibition: it is the share of the control response that was lost under treatment. One may read the pKi as −log10 of the Ki, conventionally taken in molar units.

These results are taken from article PMC9323266, “Competitive Metabolism of Polycyclic Aromatic Hydrocarbons (PAHs): An Assessment Using In Vitro Metabolism and Physiologically Based Pharmacokinetic (PBPK) Modeling” (International Journal of Environmental Research and Public …, 2022).

The structures appear in SMILES notation. pKi: −log10 of the molar value. Read-outs that look alike come from different tables or passages of the source.

The subject of one data set is CYP1A1 and CYP2C19. Particulars: Supersomes expressing human CYPs; cited from earlier work.
On the set-up of data set [1]: method as in PMID 34933053. Particulars: cited from earlier work.
For the next data set, the system named is human hepatic microsomes. The data set is described as follows: In vitro metabolism (substrate disappearance) in pooled human liver microsomes. In kind it is in vitro ADME. Particulars: human hepatic microsomes. The protocol: (§1) Pooled human liver microsome samples were obtained from Sekisui Xenotech, LLC (Kansas City, KS, USA). Pooled samples contained contributions from 200 individuals having equal male:female ratio and predominantly from humans between 19 and 78 years of age (3 individuals 10–18 years old).
(§2) Briefly, within 500 µL total volume, reactions consisted of MgCl2 (3 mM), microsomes (2.0 mg/mL), 0.1 M phosphate buffer (pH 7.4), and excess NADPH (1.5 mM). Control samples using inactivated microsomes absent of NADPH were also included. Microsomes were preactivated via 37 °C incubation on a thermal shaker for 5 min. […] Samples were incubated at 37 °C for 0–30 min or 0–60 min, respectively. Reactions were quenched by adding 500 µL 0.9 M H2SO4, and samples were immediately placed on ice until extraction. A standard curve was prepared (0.015 µM–25.0 µM) in inactivated microsomes. An internal standard was added to each quenched sample (DBC for BaP kinetics reactions and BaP for DBC kinetics reactions). Experiments were performed in triplicate.
(§3) Analytes were extracted from samples with liquid–liquid extraction and measured using high-performance liquid chromatography (HPLC). First, BaP, DBC, or retene was added as an internal standard depending on incubations conditions being tested. Samples were extracted using three 500 µL volumes of ethyl acetate. Extracts were dried under a gentle stream of nitrogen and resolubilized in 500 µL methanol. Analytes were quantified by reverse phase HPLC using an Agilent 1260 Infinity HPLC system equipped with an Agilent G4290B variable wavelength detector and an Agilent G1321B SPECTRA fluorescence detector (Santa Clara, CA, USA). Sample (10 µL) was injected into an Ascentis 25 cm × 4.6 mm, 5 µm C18 column (Sigma-Aldrich, St. Louis, MO, USA). A gradient of water and acetonitrile from 55:45 to 0:100 was employed from 0 to 10 min and then was held at 100% acetonitrile until 22 min at a flow rate of 0.95 mL/min. […] Excitation and emission wavelengths were 230 nm and 430 nm, respectively. […] Quantification was accomplished using a linear regression fit to an external calibration curve prepared in tandem with samples.
(§4) As with previous in vitro PAH metabolism studies conducted in our lab, metabolism rates were calculated based on substrate disappearance. […] Confidence intervals of metabolism rates were calculated using a nonparametric bootstrap, where metabolism rates were resampled with replacement at each concentration, and the regression was repeated on the resampled dataset (n = 1000).
(§5) These two models include a Michaelis–Menten clearance equation for non-saturable high-capacity/low-affinity enzymes (Equation (2)) and a double Michaelis–Menten equation for saturable high-capacity/low-affinity enzymes (Equation (3)). Models were optimized using a maximum likelihood objective. The Bayesian information criterion (BIC) was used to judge the best-fit model for evaluating metabolism. For Michaelis–Menten kinetics, intrinsic clearance values (Clint) of the first order phase were estimated by dividing the Vmax by the respective Km. Fit parameter confidence intervals were calculated using a parametric bootstrap (n = 1000), where each best fit model was re-optimized to sampled metabolic rates assuming a normal distribution at each […]:(1) dS/dt=Vmax×S/Km+S (2) dS/dt=Vmax1×S/Km1+S+Clint2×S (3) dS/dt=Vmax1×S/Km1+S+Vmax2×S/Km2+S
For orientation: Liver microsomes are a subcellular fraction often used to study metabolism.

Test in data set [2]: as above
Particulars: both sexes; for microsomal CLint: human, microsomes, pH 7.4, human hepatic microsomes. The format is in vitro ADME. The protocol: as §1, §2, §3, §4, §5

The next data set deals with CYP3A4. Particulars: Supersomes expressing human CYPs; cited from earlier work.
Data set [3] relates to DBC metabolism in human hepatic microsomes. The data set can be described thus: Competitive inhibition of DBC metabolism in human hepatic microsomes. The format is in vitro ADME. Particulars: both sexes, human, pH 7.4. As to the method: (§6) Competitive inhibition of PAH metabolism was measured using conditions described above. […] Each experimental condition (e.g., substrate, concentration, time point, etc.) was conducted in triplicate.
(§7) Analytes were extracted from samples with liquid–liquid extraction and measured using high-performance liquid chromatography (HPLC). First, BaP, DBC, or retene was added as an internal standard depending on incubations conditions being tested. Samples were extracted using three 500 µL volumes of ethyl acetate. Extracts were dried under a gentle stream of nitrogen and resolubilized in 500 µL methanol. Analytes were quantified by reverse phase HPLC using an Agilent 1260 Infinity HPLC system equipped with an Agilent G4290B variable wavelength detector and an Agilent G1321B SPECTRA fluorescence detector (Santa Clara, CA, USA). […] Quantification was accomplished using a linear regression fit to an external calibration curve prepared in tandem with samples.
(§8) As with previous in vitro PAH metabolism studies conducted in our lab, metabolism rates were calculated based on substrate disappearance. […] Confidence intervals of metabolism rates were calculated using a nonparametric bootstrap, where metabolism rates were resampled with replacement at each concentration, and the regression was repeated on the resampled dataset (n = 1000). […]

Data set [4] has as its target dibenzo[def,p]chrysene (DBC) metabolism in human hepatic microsomes. The data set is described as above. In kind it is in vitro ADME. Particulars: substrate DBC 0.17 µM initial, human hepatic microsomes, apparent Ki, Equation (4); read-out: Inhibition constant (Ki) of competitive inhibitor to DBC metabolism. As to the method:
as §6, §7, §8

The subject of data set [5] is benzo[a]pyrene (BaP) metabolism in human hepatic microsomes. The data set can be described thus: Competitive inhibition of BaP metabolism in human hepatic microsomes. The format is in vitro ADME. As to the method:
as §6, §7, §8

The conditions of data set [6]: cited from earlier work; for Carcinogenic (classifying agencies): classified as Suspected, Possible, Probable, or Confirmed carcinogen in animal models or humans by EPA, IARC or ACGIH.
[7] abbreviates: Michaelis-Menten clearance model fit, high-affinity/low-capacity enzyme.

`c1ccc2c(c1)cc1ccc3cccc4ccc2c1c34` [BaP, benzo[a]pyrene]: in the data set on CYP1A1 and CYP2C19, the “Share of BaP-7,8-diol produced by CYP1A1 and CYP2C19” value was 96%. The “log Kow” value in data set [1] was 6.13. Further, the “Intrinsic clearance compared to that of DBC” value in the data set with human hepatic microsomes was “nearly five-fold faster”. The Vmax1 in the data set with human hepatic microsomes (setting [7]) came to 0.0063 nmol/min/mg Micro. Further, the microsomal CLint in data set [2] (first order phase, Vmax divided by Km, read-out: Clint 1) was 72 µL/min/mg; in data set [2] (non-saturable low-affinity/high-capacity enzyme, read-out: Clint 2), 1.2 µL/min/mg. The Km in data set [2] (pH 7.4, human hepatic microsomes, Michaelis-Menten clearance model fit, high-affinity/low-capacity enzyme, read-out: Km 1) turned out to be 0.088 µM. Moreover, in the data set on CYP3A4, the “Share of 3-hydroxy-BaP produced by CYP3A4” value is on record as 53%. Further, in data set [3], the inhibition at 1 µM stood at 62%. Also, the negative logarithm of the Ki (pKi) in data set [4] was 7.21.
As for `c1ccc2c(c1)cc1ccc3cccc4c5ccccc5c2c1c34` [DBC, dibenzo[def,p]chrysene], in [1], the “log Kow” value was 7.71. The “Inhibition of the rate of BaP metabolism” value in data set [5] (inhibitor ≥1 µM, 0.14 µM BaP initial substrate concentration) was not below 48%. Besides, the pKi in data set [5] (read-out: Inhibition constant (Ki) of competitive inhibitor to BaP metabolism, substrate BaP 0.14-0.18 µM initial, human hepatic microsomes, apparent Ki, Equation (4)) is 6.36. Besides, the “Rates of metabolism, times slower than rates of BaP metabolism” value in the data set on human hepatic microsomes is 3–5 times. The Vmax1 in the data set on human hepatic microsomes (setting [7]) amounted to 0.0009 nmol/min/mg Micro. Besides, in the data set with human hepatic microsomes (Michaelis-Menten clearance model fit, high-affinity/low-capacity enzyme, read-out: Km 1), the Km is 0.06 µM. Also, the “Clint 1” value with human hepatic microsomes (first order phase, Vmax divided by Km) stood at 0.015 mL/min. The “Clint 2” value with human hepatic microsomes (non-saturable low-affinity/high-capacity enzyme) worked out at 0.0017 mL/min. Further, in data set [6] (cancer potency relative to BaP index compound), the “Relative Potency Factor” value is listed as 30.
On to `c1ccc2cc3c(ccc4ccccc43)cc2c1` [benzo(a)anthracene], for which the “Carcinogenic (classifying agencies)” value in [6] was “EPA, IARC, ACGIH”.
Consider `c1ccc2c(c1)ccc1c3ccccc3ccc21` [chrysene], for which the “Carcinogenic (classifying agencies)” value in [6] is “EPA, ACGIH”.
Turning to `c1ccc2ccccc2c1` [naphthalene], the “Carcinogenic (classifying agencies)” value in data set [6] is given as “EPA, IARC, ACGIH”.
